Patent US6124280A, “Substituted phenols as novel calcium channel blockers” (Warner-Lambert Company, priority 1998, dated 2000)
Where a name gives a salt, the structure may show the parent alone. Positions of bridges follow the written chain, without caps; N, C: chain ends. No end group written: not given here.

What was measured:
[1] = biological target: T1, N-type voltage gated calcium channels (chicken brain synaptosomes) (Gallus gallus, UniProt A0A8V1AJW5); assay: Chick Whole Brain Synaptosomal ^45 Calcium Flux Assay (inhibition of potassium stimulated calcium influx); format: biochemical; details: 20 mM KCl stimulated minus 3 mM KCl basal; 5 min drug pre-incubation, room temperature; 30-second incubation; read-out: Inhibition of ^45 Ca^+2 Influx in Chick Synaptosomes IC50
T1 construct: K+-stimulated 45Ca influx; auxiliary alpha2delta and beta subunits present but not identified
Experimental: (§1) To measure interaction at the N-type calcium channel and calcium flux inhibition, the effects of the calcium channel blockers were measured in the assays described below.
A compound is assessed at various concentrations for its ability to inhibit this potassium stimulated calcium influx.
One- to five-week old chicks were killed by decapitation and whole brain was removed. The brainstem was discarded, and the remaining brain tissue was placed in ice-cold sucrose buffer (composition: 320 mM sucrose, 5.0 mM TRIS base, 0.1 mM EDTA, pH adjusted to 7.3 with HCl). The total wet weight of pooled brain tissue was determined, and the tissue was homogenized in 10 mL sucrose buffer per gram wet weight. A Potter S-type homogenizer (B. Braun Co.) with a glass tube and teflon pestle was used. Five strokes at 400 rpm were followed by four strokes at 800 rpm. The homogenate was poured into cold centrifuge tubes and centrifuged for 10 minutes at 3000 rpm (1,075 g) in a refrigerated 4° C. RC-5 centrifuge (Sorvall) using an SS-34 rotor. The supernatant was collected and centrifuged at 11,500 rpm (15,800 g) for 10 minutes. The supernatant was discarded, and the pellet was resuspended in 1 mL sucrose buffer. Cold incubation buffer (composition: 1.2 mM MgCl2, 22 mM HEPES, 11 mM glucose, 3 mM KCl, 136 mM choline chloride, pH adjusted to 7.3 with TRIS base) was added slowly to the suspension for a total volume of 30 to 40 mL. This mixture was centrifuged at 7,000 rpm (5,856 g) for 5 minutes. The supernatant was discarded, and the pellet was resuspended in 5 mL of incubation buffer per gram of original wet weight of brain. This synaptosomal suspension was kept on ice until the start of the assay, at which time 35 μL of synaptosome suspension were added to each well of a 96-well filter plate (Millipore) which contained 75 μL incubation buffer with or without drug. Drugs were dissolved in DMSO or H2 O, and the concentration of DMSO was less than or equal to 1%.
Synaptosomes were pre-incubated in the presence or absence of drug for 5 minutes at room temperature before the addition of radioactive calcium. Drugs were present throughout the assay. Two μCi/mL stocks of ^45 CaCl2 were prepared in basal buffer (composition: incubation buffer plus 1 mM CaCl2) and in stimulation buffer (composition: 1.2 mM MgCl2, 22 mM HEPES, 11 mM glucose, 37 mM KCl, 102 mM choline chloride, 1 mM CaCl2, pH adjusted to 7.3 with TRIS base). One hundred microliter of radioactive basal or stimulation buffer were pipetted into a pre-incubated plate of synaptosomes using a Quadra 96 pipetter (Tomtec). The final KCl concentration was 3 mM for the basal condition and 20 mM for the stimulated condition; the final CaCl2 concentration was 0.5 mM with 1 μCi/mL of ^45 CaCl2. The plate was filtered under vacuum after a 30-second incubation with radioactivity. The filters were washed twice with 200 μL of wash buffer (composition: 140 mM choline chloride, 3 mM EGTA, 22 mM HEPES, pH adjusted to 7.3 with TRIS base). Plates were allowed to dry completely. Scintillation fluid was added (20 μL/well), and the plates were counted in a Wallace Microbeta plate counter. Basal ^45 CaCl2 flux (3 mM KCl) was subtracted from stimulated ^45 CaCl2 flux (20 mM KCl) in both control and drug-treated conditions, and data were expressed as percent inhibition of the adjusted control response. Values obtained in this way were plotted as a function of drug concentration and IC50 values were calculated.

[2] = biological target: T2, N-type calcium channels (IMR-32 cells) (Homo sapiens, UniProt Q00975); assay: N-type Ca2+ channel blocking potency in IMR-32 cells using fluorescent Ca2+ indicator Indo-1; format: cell-based; details: K+ depolarization, 5 μM nitrendipine present to block L-type channels, 10 min at 30° C., read-out: Inhibition of ^45 Ca^+2 Influx in IMR-32 Cells IC50
T2 construct: host or cells: IMR-32, differentiated with dibutyryl cAMP and bromodeoxyuridine
T2 sequence (Q00975 whole entry): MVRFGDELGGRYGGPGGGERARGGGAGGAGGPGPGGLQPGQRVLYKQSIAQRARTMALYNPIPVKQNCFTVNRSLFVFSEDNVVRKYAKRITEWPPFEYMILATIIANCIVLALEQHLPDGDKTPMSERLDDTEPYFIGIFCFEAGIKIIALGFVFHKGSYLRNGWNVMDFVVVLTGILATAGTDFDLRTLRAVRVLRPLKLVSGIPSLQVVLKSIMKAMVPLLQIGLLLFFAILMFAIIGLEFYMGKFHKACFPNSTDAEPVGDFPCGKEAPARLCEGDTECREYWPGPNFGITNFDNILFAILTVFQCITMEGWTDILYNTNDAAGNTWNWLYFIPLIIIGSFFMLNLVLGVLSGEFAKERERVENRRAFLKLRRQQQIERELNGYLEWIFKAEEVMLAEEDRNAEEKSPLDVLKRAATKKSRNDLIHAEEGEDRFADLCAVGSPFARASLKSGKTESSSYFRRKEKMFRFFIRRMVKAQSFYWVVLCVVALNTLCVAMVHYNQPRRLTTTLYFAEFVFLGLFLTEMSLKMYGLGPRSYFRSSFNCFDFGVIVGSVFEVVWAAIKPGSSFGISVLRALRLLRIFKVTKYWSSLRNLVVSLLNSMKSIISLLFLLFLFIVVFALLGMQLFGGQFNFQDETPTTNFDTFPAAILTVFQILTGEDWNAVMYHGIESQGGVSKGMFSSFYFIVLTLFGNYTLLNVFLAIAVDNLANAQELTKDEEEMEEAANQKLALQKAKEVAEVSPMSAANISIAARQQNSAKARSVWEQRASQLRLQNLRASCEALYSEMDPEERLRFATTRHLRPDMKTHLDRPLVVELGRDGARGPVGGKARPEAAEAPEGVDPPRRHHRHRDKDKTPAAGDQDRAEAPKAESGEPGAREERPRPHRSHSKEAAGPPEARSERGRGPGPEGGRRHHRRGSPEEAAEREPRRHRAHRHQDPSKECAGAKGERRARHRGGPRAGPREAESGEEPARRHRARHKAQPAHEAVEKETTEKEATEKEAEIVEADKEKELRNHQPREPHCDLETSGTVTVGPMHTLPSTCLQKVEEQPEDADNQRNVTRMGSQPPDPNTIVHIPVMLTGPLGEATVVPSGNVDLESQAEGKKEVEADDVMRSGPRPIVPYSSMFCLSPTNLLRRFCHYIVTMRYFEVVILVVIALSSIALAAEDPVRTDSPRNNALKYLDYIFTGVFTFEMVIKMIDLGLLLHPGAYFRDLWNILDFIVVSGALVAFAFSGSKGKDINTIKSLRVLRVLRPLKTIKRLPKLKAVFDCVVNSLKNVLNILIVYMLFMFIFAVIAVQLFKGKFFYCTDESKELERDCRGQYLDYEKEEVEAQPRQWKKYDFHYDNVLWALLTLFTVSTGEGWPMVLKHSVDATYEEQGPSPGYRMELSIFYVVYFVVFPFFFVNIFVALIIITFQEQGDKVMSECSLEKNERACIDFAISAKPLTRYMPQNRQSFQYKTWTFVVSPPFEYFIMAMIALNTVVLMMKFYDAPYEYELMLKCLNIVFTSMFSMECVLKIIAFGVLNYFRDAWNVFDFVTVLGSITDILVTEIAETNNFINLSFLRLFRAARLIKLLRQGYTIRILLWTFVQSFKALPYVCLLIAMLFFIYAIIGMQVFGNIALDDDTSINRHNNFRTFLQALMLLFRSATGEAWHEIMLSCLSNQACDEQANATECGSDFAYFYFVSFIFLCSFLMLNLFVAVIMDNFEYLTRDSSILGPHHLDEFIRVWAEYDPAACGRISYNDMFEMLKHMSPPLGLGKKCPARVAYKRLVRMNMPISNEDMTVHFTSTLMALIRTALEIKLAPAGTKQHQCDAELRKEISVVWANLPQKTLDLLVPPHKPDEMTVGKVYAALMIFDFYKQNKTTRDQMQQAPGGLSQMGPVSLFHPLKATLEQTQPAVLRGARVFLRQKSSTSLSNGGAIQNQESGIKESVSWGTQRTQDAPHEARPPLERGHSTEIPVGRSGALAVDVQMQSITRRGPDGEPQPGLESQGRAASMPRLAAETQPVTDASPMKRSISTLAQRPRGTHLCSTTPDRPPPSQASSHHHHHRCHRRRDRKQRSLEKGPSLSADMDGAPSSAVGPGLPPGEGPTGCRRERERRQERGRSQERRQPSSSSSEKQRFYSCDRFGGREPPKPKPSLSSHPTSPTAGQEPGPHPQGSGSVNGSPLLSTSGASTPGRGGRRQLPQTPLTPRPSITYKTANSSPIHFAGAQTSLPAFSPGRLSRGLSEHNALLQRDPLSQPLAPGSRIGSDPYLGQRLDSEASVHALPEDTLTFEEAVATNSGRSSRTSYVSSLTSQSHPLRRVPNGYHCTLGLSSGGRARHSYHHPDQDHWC
T2 sequence (P54289 25-944 partner limits assumed): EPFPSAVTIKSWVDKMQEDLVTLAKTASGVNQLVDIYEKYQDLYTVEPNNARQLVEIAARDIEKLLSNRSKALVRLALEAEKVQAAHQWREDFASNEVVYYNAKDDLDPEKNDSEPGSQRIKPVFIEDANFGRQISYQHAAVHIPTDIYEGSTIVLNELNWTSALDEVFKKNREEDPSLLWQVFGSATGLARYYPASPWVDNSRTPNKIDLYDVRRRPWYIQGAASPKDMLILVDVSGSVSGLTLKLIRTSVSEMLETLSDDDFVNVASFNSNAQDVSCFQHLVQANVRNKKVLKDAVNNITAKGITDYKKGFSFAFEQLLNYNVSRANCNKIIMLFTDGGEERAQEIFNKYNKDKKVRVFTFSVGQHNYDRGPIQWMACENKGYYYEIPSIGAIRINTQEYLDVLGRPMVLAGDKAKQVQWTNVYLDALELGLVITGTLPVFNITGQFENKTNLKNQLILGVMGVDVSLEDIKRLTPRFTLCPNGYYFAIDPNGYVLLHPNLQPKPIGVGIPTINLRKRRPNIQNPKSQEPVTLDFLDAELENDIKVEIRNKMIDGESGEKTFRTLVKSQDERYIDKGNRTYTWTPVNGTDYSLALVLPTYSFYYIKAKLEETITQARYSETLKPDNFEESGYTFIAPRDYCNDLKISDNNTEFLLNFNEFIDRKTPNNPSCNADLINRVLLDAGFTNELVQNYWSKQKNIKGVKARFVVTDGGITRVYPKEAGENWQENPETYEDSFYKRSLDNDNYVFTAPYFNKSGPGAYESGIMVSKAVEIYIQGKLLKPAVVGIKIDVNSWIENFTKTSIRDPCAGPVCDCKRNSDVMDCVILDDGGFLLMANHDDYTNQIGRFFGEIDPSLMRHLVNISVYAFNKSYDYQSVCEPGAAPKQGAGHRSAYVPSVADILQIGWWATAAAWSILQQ
T2 sequence (P54289 945-1103 partner limits assumed): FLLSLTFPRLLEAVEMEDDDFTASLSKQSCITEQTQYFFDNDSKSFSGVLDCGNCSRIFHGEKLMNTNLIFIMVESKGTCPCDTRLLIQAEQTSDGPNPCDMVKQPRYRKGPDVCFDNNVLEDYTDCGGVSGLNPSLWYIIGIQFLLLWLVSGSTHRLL
Experimental: as §1
IMR-2 cells are a human tumoral cell line of neural origin. […] Calcium flux into these cells may be induced by stimulation with elevated potassium concentrations. The L-channel component of calcium flux may be blocked by adding 5 μM nitrendipine. The remaining component of calcium entry into the IMR-32 cells is due to calcium flux through N-type calcium channels. Intracellular calcium concentrations are measured using the fluorescent calcium indicator Indo-1. The effect of drug concentration on calcium uptake is studied.
The IMR-32 cell line was obtained from the American Type Culture Collection (Rockville, Md.). Cells were grown in Eagle's Minimum Essential Medium with Earle's salts supplemented with 10% fetal bovine serum, 2 mM L-Gln and antibiotic/antimicotic mixture (Gibco). At approximately 80% confluency, differentiation was induced by the addition of 1 mM dibutyryl cAMP and 2.5 μM bromodeoxyuridine to the medium. After 7 to 13 days of differentiation, cells were detached using 0.5 mM EDTA and loaded with 5 μM Indo-1 acetoxymethyl ester (Molecular Probes, Eugene, Or.) at 30° C. for 45 minutes. Loaded cells were washed twice, resuspended (~10^7 cells/mL) in assay buffer (10 mM HEPES/Tris pH 7.4 in Hank's Balanced Salt Solution without bicarbonate or phenol red containing 0.5% bovine serum albumin) and kept on ice until use. Fluorescence measurements were carried out in a Photon Technology International (PTI, South Brunswick, N.J.) Model RF-F3004 spectrofluorometer with dual emission monochromators using excitation at 350 nm and emission at 400 and 490 nm. The instrument was equipped with a thermostatted cuvette holder with stirring capabilities as well as with a computer-controlled pump which allowed for reagent addition during measurement. Instrument control and data collection was done by PTI's OSCAR software running on an IBM compatible computer. Different concentrations of the test compounds (60 μL in dimethyl sulfoxide) were added to 5.94 mL of assay buffer containing approximately 3×10^6 loaded cells, and 5 μM Nitrendipine (in 30 μL EtOH) to block L-type Ca^2+ channels. Samples were incubated for 10 minutes at 30° C. and then aliquoted into three 10×10 mm disposable acrylic cuvettes. Emission signals at 400 and 490 nm were acquired from each cuvette at 30° C. for 50 seconds. At 20 seconds after the start of reading, cells were depolarized by the addition of 160 μL of stimulation solution (1M KCl, 68 mM CaCl2) to the cuvette via the computer-controlled pump. Ratio of dual emission signals (400 nm/490 nm), which is proportional to intracellular Ca^2+ concentration, was plotted against time, and the difference between maximal response after stimulation and basal value (before stimulation) was determined. Values obtained in this way were plotted as a function of drug concentration. IC50 values of test compounds were calculated by fitting a 4-parameter logistic function to the data using the least squares method.

N-type calcium channel = details: cited: Bowersox et al. 1994; cited from earlier work

Compound | IC50 [1] [µM] | IC50 [2] [µM] | activity in a number of models of ischemia and pain (N-type calcium channel)
CC(CCC(O)(c1ccccc1)c1ccccc1)(c1ccc(O)c(CN2CCCCCC2)c1)c1ccc(O)c(CN2CCCCCC2)c1 [Example 3, 4,4'-(4-Hydroxy-1-methyl-4,4-diphenylbutylidene)bis[2-[(hexahydro-1H-azepin-1-yl)methyl]phenol] oxalic acid salt] | 1.4 | 0.49 | –
CC(CCC(c1ccccc1)c1ccccc1)(c1ccc(O)c(CN2CCCCCC2)c1)c1ccc(O)c(CN2CCCCCC2)c1 [Example 6, 4,4'-(1-Methyl-4,4-diphenylbutylidene)bis[2-[(hexahydro-1H-azepin-1-yl)methyl]phenol] oxalic acid salt] | 3.15 | 0.74 | –
CC(CCCN(Cc1ccccc1)Cc1ccccc1)(c1ccc(O)c(CN2CCCCCC2)c1)c1ccc(O)c(CN2CCCCCC2)c1 [Example 10, 4,4'-[4-[Bis(phenylmethyl)amino]-1-methylbutylidene]-bis[2-[(hexahydro-1H-azepin-1yl)methyl]phenol] oxalic acid salt] | 4.2 | 0.43 | –
O=C(NCC(c1ccc(O)c(CN2CCCCCC2)c1)c1ccc(O)c(CN2CCCCCC2)c1)c1ccccc1 [Example 19, N-[2,2-Bis-(3-azepan-1-ylmethyl-4-hydroxyphenyl)ethyl]-benzamide oxalic acid salt] | 2.4 | 17 | –
O=C(NCC(c1ccc(O)c(CN2CCCCCC2)c1)c1ccc(O)c(CN2CCCCCC2)c1)C(c1ccccc1)c1ccccc1 [Example 20, N-[2,2 -Bis-(3-azepan-1-ylmethyl-4-hydroxyphenyl)ethyl]-2,2-diphenylacetamide oxalic acid salt] | 2.4 | – | –
CC(NC(=O)c1ccccc1)C(c1ccc(O)c(CN2CCCCCC2)c1)c1ccc(O)c(CN2CCCCCC2)c1 (stereo not drawn) [Example 21, N-[2,2-Bis-(3-azepan-1-ylmethyl-4-hydroxyphenyl)-1-methylethyl]benzamide oxalic acid salt] | 2.2 | 14 | –
SNX-111: selective N-type calcium channel blocker, SNX-111 (CKGKGAKCSRLMYDCCTGSCRSGKC-NH2; disulfide 1-16, 15-25, 8-20; UniProt P05484 46-70, looked up) | – | – | demonstrated activity
